Laboratory results reported in the supplement of paper PMC10331698.
± gives the standard deviation of the averaged measurements.

What was measured:
Assay in all cases: level (log10 ratio to DMSO vehicle control); higher = higher biomarker level / cell amount than vehicle control
[1] = compound: C=CC(=O)OCC(F)(F)C(F)(F)C(F)(F)COC(=O)C=C [1H,1H,5H,5H-Perfluoro-1,5-pentanediol diacrylate]; conditions: 6700 nM; in DMSO
Experimental: (§1)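 BioMAP Diversity Plus panel of 12 human primary cell co-culture systems (3C, 4H, LPS, SAg, BT, BF4T, BE3C, CASM3C, HDF3CGF, KF3CT, MyoF, Mphg). Compounds were added 1 h before stimulation and left for 24 h (MyoF 48 h; BT 72 h for soluble read-outs or 6 d for IgG). Biomarkers were read by ELISA, cytotoxicity by SRB, PBMC viability and proliferation by Alamar Blue. Each well value was divided by the mean of 8 DMSO control wells on the same plate and log10 transformed; duplicate blinded samples were tested at 4 concentrations.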

[2] = compound: FC(F)(F)C(F)(F)C(F)(F)C(F)(F)C(F)(F)C(F)(F)C(F)(F)I [1-Iodopentadecafluoroheptane]; conditions: in DMSO
Experimental: as §1

Heptafluorobutyl iodide = compound: FC(F)(F)C(F)(F)C(F)(F)CI [Heptafluorobutyl iodide]; conditions: in DMSO
Experimental: as §1

Octafluoroadipamide = compound: NC(=O)C(F)(F)C(F)(F)C(F)(F)C(F)(F)C(N)=O [Octafluoroadipamide]; conditions: in DMSO
Experimental: as §1

Nonafluoropentanamide = compound: NC(=O)C(F)(F)C(F)(F)C(F)(F)C(F)(F)F [Nonafluoropentanamide]; conditions: in DMSO
Experimental: as §1

[3] = compound: O=S(=O)(Cl)C(F)(F)C(F)(F)C(F)(F)C(F)(F)C(F)(F)C(F)(F)C(F)(F)C(F)(F)F [Perfluoro-1-octanesulfonyl chloride]; conditions: in DMSO
Experimental: as §1

[4] = compound: O=S(=O)(O)CCC(F)(F)C(F)(F)C(F)(F)C(F)(F)C(F)(F)C(F)(F)F [6:2 Fluorotelomer sulfonic acid]; conditions: in DMSO
Experimental: as §1

Test System	level (log10) [1]	level (log10) ([2]; 6700 nM)	level (log10) ([2]; 20000 nM)	level (log10) (Heptafluorobutyl iodide; 6700 nM)	level (log10) (Heptafluorobutyl iodide; 20000 nM)	level (log10) (Heptafluorobutyl iodide; 60000 nM)	level (log10) (Octafluoroadipamide; 6700 nM)	level (log10) (Octafluoroadipamide; 20000 nM)	level (log10) (Octafluoroadipamide; 60000 nM)	level (log10) (Nonafluoropentanamide; 6700 nM)	level (log10) (Nonafluoropentanamide; 20000 nM)	level (log10) (Nonafluoropentanamide; 60000 nM)	level (log10) ([3]; 6700 nM)	level (log10) ([3]; 20000 nM)	level (log10) ([3]; 60000 nM)	level (log10) ([4]; 6700 nM)	level (log10) ([4]; 20000 nM)	level (log10) ([4]; 60000 nM)
BE3C:CD54/ICAM-1	-0.018 ± 0.014	-0.0125 ± 0.026	0.006 ± 0.013	0.013 ± 0.021	0.005 ± 0.0071	0.0085 ± 0.0078	-0.0135 ± 0.025	-0.0185 ± 0.016	0.016 ± 0.034	0.0025 ± 0.012	-0.009 ± 0.028	0.0025 ± 0.03	-0.0045 ± 0.0021	0.036 ± 0.0071	-0.69 ± 0.11	-0.006 ± 0.0085	-0.0145 ± 0.005	-0.04 ± 0.023
BE3C:CD87/uPAR	0.0195 ± 0.0064	0.001 ± 0.034	0.008 ± 0.011	0.0115 ± 0.033	-0.0435 ± 0.016	-0.001 ± 0.0057	-0.0295 ± 0.043	-0.044 ± 0.071	-0.0195 ± 0.093	0.012	0.0185 ± 0.015	0.0115 ± 0.018	0.0825 ± 0.025	0.0795 ± 0.0064	-0.276 ± 0.052	0.003 ± 0.0014	-0.0065 ± 0.011	0.0235 ± 0.018
BE3C:CXCL8/IL-8	-0.0515 ± 0.04	-0.0175 ± 0.0078	-0.007 ± 0.0057	0.029 ± 0.04	0.008 ± 0.037	0.021 ± 0.021	-0.0565 ± 0.013	-0.0485 ± 0.026	-0.034 ± 0.083	0.0235 ± 0.019	0.004 ± 0.05	0.0245 ± 0.066	0.0065 ± 0.005	-0.0605 ± 0.0021	-0.311 ± 0.17	0.021 ± 0.031	-0.001 ± 0.021	0 ± 0.021
BE3C:CXCL9/MIG	0.0095 ± 0.0021	-0.0035 ± 0.021	0.003 ± 0.013	-0.002 ± 0.0099	-0.002 ± 0.0014	0.0065 ± 0.018	-0.008	-0.007 ± 0.0057	0.006 ± 0.0071	0.015 ± 0.0071	-0.001 ± 0.014	0.014	-0.0025 ± 0.00071	-0.004 ± 0.0042	-0.724 ± 0.11	-0.005 ± 0.0014	-0.004 ± 0.0042	0.0015 ± 0.011
BE3C:CXCL11/I-TAC	0.0085 ± 0.011	0.0005 ± 0.015	0.004 ± 0.013	0.005 ± 0.048	-0.0175 ± 0.005	0.0245 ± 0.025	-0.0085 ± 0.0035	-0.0155 ± 0.00071	-0.014 ± 0.021	0.012 ± 0.0099	0.01 ± 0.017	0.003 ± 0.027	-0.012 ± 0.014	0.002 ± 0.011	-0.598 ± 0.059	0.037 ± 0.028	0.0585 ± 0.00071	0.067 ± 0.018
BE3C:EGFR	-0.01	0.014 ± 0.0071	0.0185 ± 0.026	-0.015 ± 0.017	-0.019 ± 0.0071	0.0015 ± 0.005	-0.019 ± 0.016	-0.014 ± 0.0099	0.004 ± 0.04	0.0025 ± 0.011	-0.0425 ± 0.029	-0.0175 ± 0.011	-0.0135 ± 0.019	-0.0285 ± 0.00071	-0.121 ± 0.014	-0.0075 ± 0.00071	-0.027 ± 0.0085	-0.0095 ± 0.0064
BE3C:HLA-DR	-0.0175 ± 0.028	0.0035 ± 0.0021	0.0015 ± 0.0078	-0.0055 ± 0.0064	-0.022 ± 0.024	-0.0035 ± 0.018	-0.003 ± 0.0014	-0.0015 ± 0.00071	0.0175 ± 0.037	-0.005 ± 0.0042	-0.016 ± 0.0071	-0.016 ± 0.0057	-0.006 ± 0.025	-0.041 ± 0.014	-0.642 ± 0.14	-0.0135 ± 0.021	-0.0175 ± 0.012	-0.024 ± 0.0099
BE3C:IL-1alpha	-0.0415 ± 0.03	-0.0175 ± 0.005	-0.0185 ± 0.0021	0.0015 ± 0.037	-0.0225 ± 0.019	-0.001 ± 0.014	0.0085 ± 0.012	-0.0105 ± 0.0064	0.0145 ± 0.033	-0.002 ± 0.0071	0.002 ± 0.014	0.0105 ± 0.00071	0.015 ± 0.0042	0.0155 ± 0.0092	-0.523 ± 0.1	-0.0095 ± 0.021	-0.005 ± 0.0099	-0.0005 ± 0.0078
BF4T:CCL2/MCP-1	-0.073 ± 0.0099	-0.0105 ± 0.0092	0.011 ± 0.02	0.0025 ± 0.028	0.068 ± 0.11	0.046 ± 0.023	0.003 ± 0.011	-0.0025 ± 0.0064	-0.02 ± 0.031	0.001 ± 0.013	-0.0615 ± 0.023	-0.105 ± 0.03	0.038 ± 0.028	-0.0205 ± 0.021	-0.378 ± 0.021	0.0035 ± 0.0064	-0.024 ± 0.028	-0.0335 ± 0.069
BF4T:CCL26/Eotaxin-3	-0.04 ± 0.0028	-0.04 ± 0.048	-0.0305 ± 0.042	-0.0245 ± 0.005	0.002 ± 0.023	0.048 ± 0.023	-0.0045 ± 0.046	0.0065 ± 0.052	0.0075 ± 0.029	-0.006 ± 0.0071	-0.055 ± 0.0042	-0.0525 ± 0.0092	-0.0515 ± 0.0064	-0.142 ± 0.011	-0.326 ± 0.051	0.001 ± 0.018	-0.0535 ± 0.011	-0.08 ± 0.078
BF4T:CD90	-0.0195 ± 0.018	0.001 ± 0.016	-0.0025 ± 0.0021	0.003 ± 0.018	-0.009 ± 0.0028	0.001 ± 0.017	-0.0155 ± 0.0078	-0.0145 ± 0.0021	-0.0125 ± 0.021	-0.0145 ± 0.015	-0.0075 ± 0.0021	-0.013 ± 0.0042	0.0005 ± 0.00071	-0.019	-0.028 ± 0.038	-0.029 ± 0.017	-0.028 ± 0.0085	-0.031 ± 0.0042
BF4T:CD106/VCAM-1	-0.0685 ± 0.026	-0.005 ± 0.011	-0.031 ± 0.0028	-0.016 ± 0.0057	-0.021 ± 0.0042	0.017 ± 0.045	-0.0265 ± 0.021	-0.0215 ± 0.016	0.0155 ± 0.061	-0.015 ± 0.059	-0.0485 ± 0.03	-0.014 ± 0.017	-0.0255 ± 0.029	-0.04 ± 0.028	-0.126 ± 0.088	-0.0125 ± 0.04	-0.0315 ± 0.0035	-0.022 ± 0.057
BF4T:CXCL8/IL-8	-0.0315 ± 0.037	0.0515 ± 0.079	0.0425 ± 0.044	0.0085 ± 0.029	0.061 ± 0.11	0.0505 ± 0.063	-0.0185 ± 0.0064	-0.022 ± 0.011	-0.003 ± 0.044	0.055 ± 0.021	0.028 ± 0.057	0.0235 ± 0.088	0.002 ± 0.024	0.0225 ± 0.012	-0.009 ± 0.018	0.069 ± 0.058	0.0625 ± 0.044	0.0805 ± 0.057
BF4T:IL-1alpha	0.0055 ± 0.036	-0.0035 ± 0.0035	0.003 ± 0.0014	-0.017 ± 0.016	-0.0125 ± 0.0035	-0.015 ± 0.05	0.007 ± 0.0071	-0.005 ± 0.0071	0.0215 ± 0.018	-0.017 ± 0.0042	-0.0035 ± 0.028	-0.003 ± 0.0014	-0.0015 ± 0.0092	-0.0045 ± 0.005	-0.0925 ± 0.005	0.006 ± 0.0085	0.0005 ± 0.0092	0.023 ± 0.018
